Experiment [1] concerns the target T1, 5-HT2BR (Homo sapiens, UniProt P41595).
T1 construct: expressed in transfected cells; host or cells: Flp-In 293 T-Rex (tetracycline inducible)
The experiment can be described thus: Calcium flux assay (FLIPR, Fluo-4), 5-HT2BR stable cell line. In kind it is cell-based. As to conditions: for 5-HT2BR Rmax ± S.E.M: value in parentheses. How it is done:
Stable cell lines for 5-HT2AR, 5-HT2BR and 5-HT2CR generated using the Flp-In 293 T-Rex Tetracycline inducible system (Invitrogen). Tetracycline-induced cells were seeded in 384-well poly-L-lysine plates at a density of 10,000 cells/well in DMEM containing 1% dialyzed FBS at least 16-24 hr before the calcium flux assay. On the day of the assay, the cells were incubated (20 ul/well) for 1 hr at 37° C. with Fluo-4 Direct dye (Invitrogen) reconstituted in FLIPR buffer (1×HBSS, 2.5 mM probenecid, and 20 mM HEPES, pH 7.4). After dye loading, cells were placed in a FLIPR^TETRA fluorescence imaging plate reader ([…]). Drug dilutions were prepared at 3× final concentration in drug buffer (1×HBSS, 20 mM HEPES, 0.1% BSA, 0.01% ascorbic acid, pH 7.4) and aliquoted into 384-well plates and placed in the FLIPR^TETRA for drug stimulation. The fluidics module and plate reader of the FLIPR^TETRA were programmed to read baseline fluorescence for 10s (1 read/s), then 10 ul of drug/well was added and read for 5 min (1 read/s). Fluorescence in each well was normalized to the average of the first 10 reads (i.e., baseline fluorescence). Then, the maximum-fold increase, which occurred within the first 60 s after drug addition, was determined and fold over baseline was plotted as a function of drug concentration. Data were normalized to % 5-HT stimulation and analyzed using “log(agonist) vs. response” in GraphPad Prism 9.0.

The target of experiment [2] is T1, 5-HT2BR. The experiment can be described thus: 5-HT2BR binding affinity (Ki), Table 8.
For experiment [3], the target named is T2, 5-HT2AR (Homo sapiens, UniProt P28223).
T2 construct: expressed in transfected cells; host or cells: Flp-In 293 T-Rex (tetracycline inducible)
The experiment can be described thus: Calcium flux assay (FLIPR, Fluo-4), 5-HT2AR stable cell line. As to conditions: for 5-HT2AR Rmax ± S.E.M: value in parentheses. It counts as cell-based.

The target in experiment [4] is T2, 5-HT2AR. The experiment can be described thus: 5-HT2AR binding affinity (Ki), Table 8. To be noted: read-out: 5-HT2AR Ki.
Experiment [5] has as its target T3, 5-HT2CR (Homo sapiens, UniProt P28335).
T3 sequence (P28335 33-458): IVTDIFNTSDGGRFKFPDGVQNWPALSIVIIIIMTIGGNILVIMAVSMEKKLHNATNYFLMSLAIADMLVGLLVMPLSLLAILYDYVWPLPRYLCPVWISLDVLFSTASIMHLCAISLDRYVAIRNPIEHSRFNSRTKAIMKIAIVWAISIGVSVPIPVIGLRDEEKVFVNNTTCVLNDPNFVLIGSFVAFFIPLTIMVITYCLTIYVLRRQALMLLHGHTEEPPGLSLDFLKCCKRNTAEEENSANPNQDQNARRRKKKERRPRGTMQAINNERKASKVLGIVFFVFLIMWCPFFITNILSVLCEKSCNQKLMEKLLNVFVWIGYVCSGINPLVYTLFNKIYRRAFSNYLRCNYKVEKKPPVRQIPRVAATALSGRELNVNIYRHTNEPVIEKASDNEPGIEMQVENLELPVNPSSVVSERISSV
Nature of the experiment: 5-HT2CR binding affinity (Ki), Table 8. To be noted: read-out: 5-HT2CR Ki.

Setting [6] is: bracketed value below EC50, read-out: 5-HT2BR pEC50 ± S.E.M (converted).
Setting [7] is: bracketed value below Ki, read-out: 5-HT2BR pKi ± S.E.M (converted).
Where [8] appears, read: bracketed value below EC50, read-out: 5-HT2AR pEC50 ± S.E.M (converted).

This note sets out measurements from patent publication US20230365542A1, “Selective Agonists of 5-HT2A Receptor and Methods of Use” (Yale University, priority 2020, published 2023).

Read-outs that look alike come from different tables or passages of the source.

T2 sequence (P28223 whole entry): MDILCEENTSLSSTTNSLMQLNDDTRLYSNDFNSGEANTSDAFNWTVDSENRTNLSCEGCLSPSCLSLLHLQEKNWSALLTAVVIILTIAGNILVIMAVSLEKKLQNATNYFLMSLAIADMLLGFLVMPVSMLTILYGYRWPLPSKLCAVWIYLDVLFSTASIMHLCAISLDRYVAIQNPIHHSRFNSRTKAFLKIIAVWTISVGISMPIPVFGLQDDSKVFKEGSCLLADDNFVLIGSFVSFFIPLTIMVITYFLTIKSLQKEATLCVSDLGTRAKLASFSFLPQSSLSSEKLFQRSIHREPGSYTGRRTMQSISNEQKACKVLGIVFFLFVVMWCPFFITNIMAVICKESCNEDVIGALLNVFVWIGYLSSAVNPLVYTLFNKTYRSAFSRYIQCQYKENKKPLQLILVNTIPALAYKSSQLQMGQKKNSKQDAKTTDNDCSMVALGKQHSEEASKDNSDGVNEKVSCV
T1 sequence (P41595 whole entry): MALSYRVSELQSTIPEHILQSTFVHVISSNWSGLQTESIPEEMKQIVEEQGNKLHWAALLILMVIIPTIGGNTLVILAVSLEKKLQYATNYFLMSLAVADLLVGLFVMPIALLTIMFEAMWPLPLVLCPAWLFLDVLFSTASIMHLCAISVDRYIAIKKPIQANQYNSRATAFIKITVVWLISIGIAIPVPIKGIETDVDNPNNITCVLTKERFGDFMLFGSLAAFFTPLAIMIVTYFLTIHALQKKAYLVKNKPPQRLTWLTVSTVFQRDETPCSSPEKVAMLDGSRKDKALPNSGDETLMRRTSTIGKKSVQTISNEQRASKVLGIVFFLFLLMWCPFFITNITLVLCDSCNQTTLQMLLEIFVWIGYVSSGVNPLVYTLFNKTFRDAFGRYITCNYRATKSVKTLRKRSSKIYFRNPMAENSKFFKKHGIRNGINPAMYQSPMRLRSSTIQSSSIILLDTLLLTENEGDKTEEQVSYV

In the case of `CC1C=C(c2cnn(C)c2)CN(CC2(C)COC2)C1` (racemic) [Compound 1, 3-Methyl-5-(1-methyl-1H-pyrazol-4-yl)-1-((3-methyloxetan-3-yl)methyl)-1,2,3,6-tetrahydropyridine], the EC50 in experiment [1] (read-out: 5-HT2BR EC50) worked out at 1940 nM. In addition, the “5-HT2BR Rmax ± S.E.M” value in experiment [1] stood at 48.9%. Moreover, in experiment [2] (read-out: 5-HT2BR Ki), the Ki amounted to 3880 nM.

Take `CCc1cncn1CCN1CC(c2cccn2C)=CC(C)C1` (racemic) [Compound 2, 1-(2-(5-Ethyl-1H-imidazol-1-yl)ethyl)-3-methyl-5-(1-methyl-1H-pyrrol-2-yl)-1,2,3,6-tetrahydropyridine]: the “5-HT2AR EC50” value in experiment [3] was “antagonist”. The EC50 in experiment [1] (read-out: 5-HT2BR EC50) worked out at 2980 nM. Also, the “5-HT2BR Rmax ± S.E.M” value in experiment [1] is 56.3%. For the same compound, the Ki in experiment [4] turned out to be 6230 nM; in experiment [2] (read-out: 5-HT2BR Ki) it was 2670 nM.

In the case of `CCCCCN1CC(c2cnn(C)c2)=CC(C)C1` (racemic) [Compound 3, 3-Methyl-5-(1-methyl-1H-pyrazol-4-yl)-1-pentyl-1,2,3,6-tetrahydropyridine], in experiment [3] (read-out: 5-HT2AR EC50), the EC50 is over 10000 nM. Further, in experiment [1], the “5-HT2BR EC50” value was “antagonist”. Moreover, in experiment [2] (read-out: 5-HT2BR Ki), the Ki was 1480 nM.

As for `Cc1cncc(C2=CC(C)CN(CC3(O)COC3)C2)c1` (racemic) [Compound 4, 3-((5,5′-Dimethyl-5,6-dihydro-[3,3′-bipyridin]-1(2H)-yl)methyl)oxetan-3-ol], the “5-HT2BR EC50” value in experiment [1] was “antagonist”. In addition, the Ki in experiment [2] (read-out: 5-HT2BR Ki) was 670 nM.

Turning to `Cc1cncc(C2=C[C@H](C)CN(CC3(O)COC3)C2)c1` (stereo in doubt) [Compound 6, 3-((5,5′-Dimethyl-5,6-dihydro-[3,3′-bipyridin]-1(2H)-yl)methyl)oxetan-3-ol], the EC50 in experiment [1] (setting [6]) was 115 nM; in experiment [1] (read-out: 5-HT2BR EC50), 120 nM. Besides, the “5-HT2BR Rmax ± S.E.M” value in experiment [1] was “(16.0%”. Also, the values for the Ki in experiment [4], in experiment [2] (setting [7]) and in experiment [5] were over 10000 nM, 245 nM and over 10000 nM, respectively.

On to `CCCCN1CC(c2cncc(C)c2)=C[C@H](C)C1` (stereo in doubt) [Compound 14, 1-Butyl-5,5′-dimethyl-1,2,5,6-tetrahydro-3,3′-bipyridine], for which the EC50 in experiment [3] (read-out: 5-HT2AR EC50) was 1830 nM; in experiment [1] (setting [6]), 28.2 nM. The “5-HT2AR Rmax ± S.E.M” value in experiment [3] is “(57.3%”. Also, in experiment [1], the “5-HT2BR Rmax ± S.E.M” value is on record as “(71.7%”. In addition, the Ki in experiment [4] is over 10000 nM; in experiment [2] (setting [7]), 30.9 nM; in experiment [2] (read-out: 5-HT2BR Ki), 30 nM; in experiment [5] it was over 10000 nM.

Take `C[C@@H]1C=C(c2cncc(Cl)c2)CN(C)C1` (stereo in doubt) [Compound 17, 5′-chloro-1,5-dimethyl-1,2,5,6-tetrahydro-3,3′-bipyridine]: the EC50 in experiment [3] (setting [8]) is 347 nM; in experiment [1] (setting [6]), 26.9 nM. In addition, in experiment [3], the “5-HT2AR Rmax ± S.E.M” value was “(14.9%”. For the same compound, the “5-HT2BR Rmax ± S.E.M” value in experiment [1] is reported as “(42.1%”. In addition, the Ki in experiment [4] is 2100 nM; in experiment [2] (setting [7]) it was 30.2 nM; in experiment [5] it was over 10000 nM.

With `Cc1cncc(C2=C[C@@H](C)CN(CC3(O)COC3)C2)c1` [Compound 5, 3-((5,5′-Dimethyl-5,6-dihydro-[3,3′-bipyridin]-1(2H)-yl)methyl)oxetan-3-ol], the “5-HT2BR EC50” value in experiment [1] is reported as “antagonist”. Moreover, the Ki in experiment [4] is over 10000 nM; in experiment [2] (setting [7]) it was 3240 nM; in experiment [5], over 10000 nM.

For `C[C@H]1C=C(c2cncc(Cl)c2)CN(CC2(O)COC2)C1` [Compound 8, 3-((5′-Chloro-5-methyl-5,6-dihydro-[3,3′-bipyridin]-1(2H)-yl)methyl)oxetan-3-ol], the EC50 in experiment [1] (setting [6]) was 126 nM. The “5-HT2BR Rmax ± S.E.M” value in experiment [1] was “(20.4%”. For the same compound, the results for the Ki in experiment [4], in experiment [2] (setting [7]) and in experiment [5] were over 10000 nM, 79.4 nM and over 10000 nM, respectively.

As for `C[C@H]1C=C(c2c[nH]c3ncccc23)CNC1` [compound 39, (S)-3-(5-methyl-1,2,5,6-tetrahydropyridin-3-yl)-1H-pyrrolo[2,3-b]pyridine], the EC50 in experiment [3] (setting [8]) was 513 nM; in experiment [3] (read-out: 5-HT2AR EC50), 520 nM; in experiment [1] (read-out: 5-HT2BR EC50) it was 1230 nM. The “5-HT2AR Rmax ± S.E.M” value in experiment [3] is listed as “(14.0%”. In experiment [1], the “5-HT2BR Rmax ± S.E.M” value is on record as “(26.8%”. Moreover, in experiment [2] (read-out: 5-HT2BR Ki), the Ki was determined as 1810 nM.
